From patent US8148367B2 (Takeda Pharmaceutical Company Limited, priority 2008, dated 2012) come the findings set out here.

The target of this experiment is T1, Recombinant human renin (Homo sapiens, UniProt P00797).
T1 construct: isolate the active form (residues 67-406); made in house; host or cells: FreeStyle 293-F cells, transient expression of pcDNA3.1(+)/hREN
T1 sequence (P00797 67-406): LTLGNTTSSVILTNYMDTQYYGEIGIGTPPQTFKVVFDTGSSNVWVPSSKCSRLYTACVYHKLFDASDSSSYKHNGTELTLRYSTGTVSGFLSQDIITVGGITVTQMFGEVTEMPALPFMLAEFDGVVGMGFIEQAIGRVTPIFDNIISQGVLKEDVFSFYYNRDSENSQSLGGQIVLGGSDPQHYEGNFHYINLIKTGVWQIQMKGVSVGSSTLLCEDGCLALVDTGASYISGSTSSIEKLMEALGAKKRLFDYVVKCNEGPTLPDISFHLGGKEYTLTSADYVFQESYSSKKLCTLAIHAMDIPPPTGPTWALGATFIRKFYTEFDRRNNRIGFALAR
As to the kind of experiment: In vitro enzymatic activity assay of renin inhibitors (fluorescence, QXL520/HiLyteFluo488 peptide substrate). Format: biochemical. Particulars: recombinant human renin 3 nM, 1 μM substrate, pre-incubated 10 minutes at 37° C., incubation one hour, pH 7.4, 5% DMSO; read-out: IC50 of Exemplified Compounds Against Renin.

In the case of `O=C(c1c(-c2ccccc2)n(-c2ccccc2)c(=O)n1Cc1c[nH]cn1)N1CCNCC1` [Example 49, 1-((1H-Imidazol-4-yl)methyl)-3,4-diphenyl-5-(piperazine-1-carbonyl)-1H-imidazol-2(3H)-one], the IC50 – broadly, the midpoint of a concentration-inhibition curve – was > 1000 nM.
The result for `Nc1nc(Cn2c(C(=O)N3CCNCC3)c(-c3ccccc3)n(-c3ccccc3)c2=O)cs1` [Example 50, 1-((2-Aminothiazol-4-yl)methyl)-3,4-diphenyl-5-(piperazine-1-carbonyl)-1H-imidazol-2(3H)-one] reads 500 to 1000 nM; that for `O=C(c1c(-c2ccccc2)n(-c2ccccc2)c(=O)n1Cc1cccc(F)c1)N1CCNCC1` [Example 51, 1-(3-Fluorobenzyl)-3,4-diphenyl-5-(piperazine-1-carbonyl)-1H-imidazol-2(3H)-one], 100 to 500 nM; that for `O=C(c1c(-c2ccccc2)n(-c2ccccc2)c(=O)n1Cc1ccc(F)c(F)c1)N1CCNCC1` [Example 52, 1-(3,4-Difluorobenzyl)-3,4-diphenyl-5-(piperazine-1-carbonyl)-1H-imidazol-2(3H)-one], 100 to 500 nM.
The result for `O=C(c1c(-c2ccccc2)n(-c2ccccc2)c(=O)n1CC1CCOCC1)N1CCNCC1` [Example 53, 1,5-Diphenyl-4-(piperazine-1-carbonyl)-3-((tetrahydro-2H-pyran-4-yl)methyl)-1H-imidazol-2(3H)-one] reads > 1000 nM.
The result for `Cn1c(C(=O)N2CCNCC2)c(-c2ccccc2)n(-c2ccccc2)c1=O` [Example 54, 1-Methyl-3,4-diphenyl-5-(piperazine-1-carbonyl)-1H-imidazol-2(3H)-one] reads > 1000 nM; that for `Cn1c(C(=O)N2CCNC[C@H]2Cc2ccccc2)c(-c2ccccc2)n(-c2cccc(N3CCOCC3)c2)c1=O` [Example 55, (R)-4-(2-Benzylpiperazine-1-carbonyl)-3-methyl-1-(3-morpholinophenyl)-5-phenyl-1H-imidazol-2(3H)-one], 100 to 500 nM.
`O=C(c1c(-c2ccccc2)n(-c2cccc(N3CCOCC3)c2)c(=O)n1Cc1ccccc1)N1CCNCC1` [Example 56, 1-Benzyl-3-(3-morpholinophenyl)-4-phenyl-5-(piperazine-1-carbonyl)-1H-imidazol-2(3H)-one]: the IC50 was 100 to 500 nM.
Next, `O=C(c1cccc(Cn2c(C(=O)N3CCNCC3)c(-c3ccccc3)n(-c3cccc(N4CCOCC4)c3)c2=O)c1)N1CCOCC1` [Example 57, 1-(3-(Morpholine-4-carbonyl)benzyl)-3-(3-morpholinophenyl)-4-phenyl-5-(piperazine-1-carbonyl)-1H-imidazol-2(3H)-one]: > 1000 nM.
Next, `O=C(c1cccc(Cn2c(C(=O)N3CCNCC3)c(-c3ccccc3)n(-c3cccc(N4CCOCC4)c3)c2=O)c1)N1CCCCC1` [Example 58, 1-(3-Morpholinophenyl)-5-phenyl-4-(piperazine-1-carbonyl)-3-(3-(piperidine-1-carbonyl)benzyl)-1H-imidazol-2(3H)-one]: > 1000 nM; `O=C(O)COc1cccc(Cn2c(C(=O)N3CCNCC3)c(-c3ccccc3)n(-c3cccc(N4CCOCC4)c3)c2=O)c1` [Example 59, 2-(3-((3-(3-Morpholinophenyl)-2-oxo-4-phenyl-5-(piperazine-1-carbonyl)-2,3-dihydro-1H-imidazol-1-yl)methyl)phenoxy)acetic acid]: > 1000 nM; `Cn1c(C(=O)N2CCNCC2)c(-c2ccccc2)n(C2CCCCC2)c1=O` [Example 60, 1-Cyclohexyl-3-methyl-5-phenyl-4-(piperazine-1-carbonyl)-1H-imidazol-2(3H)-one]: > 1000 nM.
The result for `CC(C)NC(=O)NCCCn1c(C(=O)N2CCNCC2)c(-c2ccccc2)n(-c2cccc(N3CCOCC3)c2)c1=O` [Example 61, 1-Isopropyl-3-(3-(3-(3-morpholinophenyl)-2-oxo-4-phenyl-5-(piperazine-1-carbonyl)-2,3-dihydro-1H-imidazol-1-yl)propyl)urea] reads > 1000 nM; that for `C=CCn1c(C(=O)N2CCNCC2)c(-c2ccccc2)n(C2CCCCC2)c1=O` [Example 62, 1-Allyl-3-cyclohexyl-4-phenyl-5-(piperazine-1-carbonyl)-1H-imidazol-2(3H)-one], > 1000 nM.
As to `NC(=O)Cn1c(C(=O)N2CCNCC2)c(-c2ccccc2)n(C2CCCCC2)c1=O` [Example 63, 2-(3-Cyclohexyl-2-oxo-4-phenyl-5-(piperazine-1-carbonyl)-2,3-dihydro-1H-imidazol-1-yl)acetamide], the IC50 is > 1000 nM.
Consider `C=CCn1c(C(=O)N2CCNC[C@H]2Cc2ccccc2)c(-c2ccccc2)n(C2CCCCC2)c1=O` [Example 64, (R)-1-Allyl-5-(2-benzylpiperazine-1-carbonyl)-3-cyclohexyl-4-phenyl-1H-imidazol-2(3H)-one], for which the IC50 was < 100 nM.
Next, `Cn1c(C(=O)N2CCNC[C@H]2Cc2ccccc2)c(-c2ccccc2)n(C2CCCCC2)c1=O` [Example 65, (R)-4-(2-Benzylpiperazine-1-carbonyl)-1-cyclohexyl-3-methyl-5-phenyl-1H-imidazol-2(3H)-one]: < 100 nM; `COCCn1c(C(=O)N2CCNC[C@H]2Cc2ccccc2)c(-c2ccccc2)n(C2CCCCC2)c1=O` [Example 66, (R)-4-(2-Benzylpiperazine-1-carbonyl)-1-cyclohexyl-3-(2-methoxyethyl)-5-phenyl-1H-imidazol-2(3H)-one]: < 100 nM.
The result for `NC(=O)Cn1c(C(=O)N2CCNC[C@H]2Cc2ccccc2)c(-c2ccccc2)n(C2CCCCC2)c1=O` [Example 67, (R)-2-(5-(2-Benzylpiperazine-1-carbonyl)-3-cyclohexyl-2-oxo-4-phenyl-2,3-dihydro-1H-imidazol-1-yl)acetamide] reads 100 to 500 nM; that for `COC(=O)C(c1ccccc1)n1c(C(=O)N2CCNCC2)c(-c2ccccc2)n(C2CCCCC2)c1=O` (stereo not shown) [Example 68, Methyl 2-(3-cyclohexyl-2-oxo-4-phenyl-5-(piperazine-1-carbonyl)-2,3-dihydro-1H-imidazol-1-yl)-2-phenylacetate], > 1000 nM.
Next, `CC(c1ccccc1)n1c(C(=O)N2CCNCC2)c(-c2ccccc2)n(C2CCCCC2)c1=O` (stereo not shown) [Example 69, 1-Cyclohexyl-5-phenyl-3-(1-phenylethyl)-4-(piperazine-1-carbonyl)-1H-imidazol-2(3H)-one]: 100 to 500 nM.
On to `O=C(c1c(-c2ccccc2)n(C2CCCCC2)c(=O)n1CCc1ccccc1)N1CCNCC1` [Example 71, 1-Cyclohexyl-3-phenethyl-5-phenyl-4-(piperazine-1-carbonyl)-1H-imidazol-2(3H)-one], for which the IC50 was in the range of 100 to 500 nM.
The result for `O=C(c1c(-c2ccccc2)n(C2CCCCC2)c(=O)n1Cc1cccc(-n2cccc2)c1)N1CCNCC1` [Example 72, 1-(3-(1H-Pyrrol-1-yl)benzyl)-3-cyclohexyl-4-phenyl-5-(piperazine-1-carbonyl)-1H-imidazol-2(3H)-one] reads 100 to 500 nM; that for `Cc1ccccc1-n1c(-c2ccccc2)c(C(=O)N2CCNCC2)n(Cc2cccc(OCCOc3ccccc3)c2)c1=O` [Example 73, 1-(3-(2-Phenoxyethoxy)benzyl)-4-phenyl-5-(piperazine-1-carbonyl)-3-o-tolyl-1H-imidazol-2(3H)-one], 100 to 500 nM; that for `O=C(c1c(-c2ccccc2)n(-c2cccc(N3CCOCC3)c2)c(=O)n1Cc1cccc(Oc2ccccc2)c1)N1CCNCC1` [Example 74, 1-(3-Morpholinophenyl)-3-(3-phenoxybenzyl)-5-phenyl-4-(piperazine-1-carbonyl)-1H-imidazol-2(3H)-one], < 100 nM.
The result for `COCCCOc1cccc(-n2c(-c3ccccc3)c(C(=O)N3CCNCC3)n(Cc3cccc(Oc4ccccc4)c3)c2=O)c1` [Example 75, 1-(3-(3-Methoxypropoxy)phenyl)-3-(3-phenoxybenzyl)-5-phenyl-4-(piperazine-1-carbonyl)-1H-imidazol-2(3H)-one] reads < 100 nM; that for `O=C(c1c(-c2ccccc2)n(-c2cccc(N3CCOCC3)c2)c(=O)n1Cc1cccc(OCc2ccccc2)c1)N1CCNCC1` [Example 76, 1-(3-(Benzyloxy)benzyl)-3-(3-morpholinophenyl)-4-phenyl-5-(piperazine-1-carbonyl)-1H-imidazol-2(3H)-one], < 100 nM.
On to `O=C(c1c(-c2ccccc2)n(-c2cccc(N3CCOCC3)c2)c(=O)n1Cc1cccc(-n2cccc2)c1)N1CCNCC1` [Example 77, 1-(3-(1H-Pyrrol-1-yl)benzyl)-3-(3-morpholinophenyl)-4-phenyl-5-(piperazine-1-carbonyl)-1H-imidazol-2(3H)-one], for which the IC50 was < 100 nM.
The result for `CC(C)CN(C)C(=O)c1cccc(Cn2c(C(=O)N3CCNCC3)c(-c3ccccc3)n(-c3cccc(N4CCOCC4)c3)c2=O)c1` [Example 78, N-isobutyl-N-methyl-3-((3-(3-morpholinophenyl)-2-oxo-4-phenyl-5-(piperazine-1-carbonyl)-2,3-dihydro-1H-imidazol-1-yl)methyl)benzamide] reads > 1000 nM; that for `N#Cc1cccc(Cn2c(C(=O)N3CCNCC3)c(-c3ccccc3)n(-c3ccccc3)c2=O)c1` [Example 79, 3-((2-oxo-3,4-diphenyl-5-(piperazine-1-carbonyl)-2,3-dihydro-1H-imidazol-1-yl)methyl)benzonitrile], 500 to 1000 nM; that for `COC(=O)c1cccc(Cn2c(C(=O)N3CCNCC3)c(-c3ccccc3)n(-c3ccccc3)c2=O)c1` [Example 80, Methyl 3-((2-oxo-3,4-diphenyl-5-(piperazine-1-carbonyl)-2,3-dihydro-1H-imidazol-1-yl)methyl)benzoate], > 1000 nM.
